Source: US20090176807A1, “GLUCOCORTICOID MIMETICS, METHODS OF MAKING THEM, PHARMACEUTICAL COMPOSITIONS, AND USES THEREOF” (priority 2005, published 2009)

How the values were obtained:
[1] = system: Human osteosarcoma MG-63 cells; assay: Inhibition of osteocalcin production from osteoblast cell line MG-63; format: cell-based; settings: Vitamin D 10 nM, 48 hours, osteocalcin ELISA, result in words only
Description: Human osteosarcoma MG-63 cells (ATCC, Cat. No. CRL-1427) are plated on 96 well plates at 20,000 cells per well the day before use in 200 μL media of 99% D-MEM/F-12 (Gibco-Invitrogen, Cat. No. 11039-021), supplemented with 1% penicillin and streptomycin (Gibco-Invitrogen, Cat. No. 15140-122), 10 μg/mL Vitamin C (Sigma, Cat. No. A-4544), and 1% charcoal filtered Fetal Bovine Serum (HyClone, Cat. No. SH30068.02). The next day, wells are replaced with fresh media. Cells are treated with Vitamin D (Sigma, Cat. No. D1530) to a final concentration of 10 nM, and with the test compounds in concentrations of 10^−6 M to 10^−9 M, in a total volume of 200 μL per well. Samples are done in duplicates. […] Positive control wells receive Vitamin D only, without compounds, and represent maximum (100%) amount of osteocalcin production. Plates are incubated at 37° C. incubator for 48 hours and supernatants are harvested at the end of incubation. Amounts of osteocalcin in the supernatants are determined by the Glype osteocalcin ELISA kit (Zymed, Cat. No. 99-0054) according to manufacture's protocol. Inhibition of osteocalcin by test compounds is expressed in percentage relative to positive controls. IC50 values of the test compounds are derived by non-lineal curve fitting.

[2] = biological target: T1, human glucocorticoid receptor (GR) complex (Homo sapiens, UniProt P04150); assay: Glucocorticoid receptor competitive binding assay (fluorescence polarization); settings: competition with TAMRA-labeled dexamethasone, result in words only
T1 construct: made in house; host or cells: insect expression system (baculovirus lysate)
T1 sequence (P04150 1-777): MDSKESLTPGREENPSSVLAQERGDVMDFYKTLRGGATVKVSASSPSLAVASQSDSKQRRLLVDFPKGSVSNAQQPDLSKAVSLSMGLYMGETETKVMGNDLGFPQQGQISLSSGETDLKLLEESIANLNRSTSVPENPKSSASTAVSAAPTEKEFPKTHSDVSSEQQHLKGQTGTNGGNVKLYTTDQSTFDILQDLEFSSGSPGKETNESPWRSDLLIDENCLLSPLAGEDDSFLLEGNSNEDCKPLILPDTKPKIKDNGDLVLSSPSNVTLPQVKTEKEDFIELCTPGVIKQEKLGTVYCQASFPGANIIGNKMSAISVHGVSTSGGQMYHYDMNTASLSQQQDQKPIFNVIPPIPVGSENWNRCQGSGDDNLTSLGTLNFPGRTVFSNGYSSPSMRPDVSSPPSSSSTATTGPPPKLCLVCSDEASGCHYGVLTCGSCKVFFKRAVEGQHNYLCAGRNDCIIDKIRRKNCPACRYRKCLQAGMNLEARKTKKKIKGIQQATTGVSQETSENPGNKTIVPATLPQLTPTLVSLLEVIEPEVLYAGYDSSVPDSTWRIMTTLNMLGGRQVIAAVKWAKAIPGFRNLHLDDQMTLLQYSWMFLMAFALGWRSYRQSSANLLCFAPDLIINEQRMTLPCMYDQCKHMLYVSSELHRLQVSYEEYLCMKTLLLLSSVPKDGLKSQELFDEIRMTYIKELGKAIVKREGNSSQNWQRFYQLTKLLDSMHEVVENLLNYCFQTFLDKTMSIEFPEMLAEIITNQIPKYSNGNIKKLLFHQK
Description: Compounds of the invention were evaluated for binding to the steroid receptor by a fluorescence polarization competitive binding assay.
The wavelengths for maximum excitation and emission of the fluorescent probe should first be measured. An example of such a probe is rhodamine (TAMRA)-labeled dexamethasone.
The affinity of the probe for the steroid receptor was then determined in a titration experiment. The fluorescence polarization value of the probe in assay buffer was measured on an SLM-8100 fluorometer using the excitation and emission maximum values described above. Aliquots of expression vector lysate were added and fluorescence polarization was measured after each addition until no further change in polarization value was observed. Non-linear least squares regression analysis was used to calculate the dissociation constant of the probe from the polarization values obtained for lysate binding to the probe.
This assay uses fluorescence polarization (FP) to quantitate the ability of test compounds to compete with tetramethyl rhodamine (TAMRA)-labeled dexamethasone for binding to a human glucocorticoid receptor (GR) complex prepared from an insect expression system. The assay buffer was: 10 mM TES, 50 mM KCl, 20 mM Na2MoO4.2H2O, 1.5 mM EDTA, 0.04% w/v CHAPS, 10% v/v glycerol, 1 mM dithiothreitol, pH 7.4. Test compounds were dissolved to 1 mM in neat DMSO and then further diluted to 10× assay concentration in assay buffer supplemented with 10% v/v DMSO. Test compounds were serially diluted at 10× assay concentrations in 10% DMSO-containing buffer in 96-well polypropylene plates. Binding reaction mixtures were prepared in 96-well black Dynex microtiter plates by sequential addition of the following assay components to each well: 15 μL of 10× test compound solution, 85 μL of GR-containing baculovirus lysate diluted 1:170 in assay buffer, and 50 μL of 15 nM TAMRA-labeled dexamethasone. Positive controls were reaction mixtures containing no test compound; negative controls (blanks) were reaction mixtures containing 0.7 μM to 2 μM dexamethasone. […] IC50 values were determined by iterative non-linear curve fitting of the FP signal data to a 4-parameter logistic equation.

| activity in the GR binding assay [2] | melting point [°C] | SMILES | inhibition of the vitamin D stimulated production of osteocalcin [1] |
| --- | --- | --- | --- |
| potent activity |  | CC(C)(CC(O)(Cn1ccc(=O)c2sccc21)C(F)(F)F)c1cc(-c2cccnc2)ccc1O (centres unmarked) [4-[2-Hydroxy-4-(2-hydroxy-5-pyridin-3-ylphenyl)-4-methyl-2-trifluoromethylpentyl]-4H-thieno[3,2-b]pyridin-7-one] | inhibit the vitamin D stimulated production of osteocalcin |
| potent activity | 197 to 198 | CC(C)(CC(O)(Cn1cc(Br)c(=O)c2sccc21)C(F)(F)F)c1cccc2c1OCO2 (centres unmarked) [4-(4-Benzo[1,3]dioxol-4-yl-2-hydroxy-4-methyl-2-trifluoromethylpentyl)-6-bromo-4H-thieno[3,2-b]pyridin-7-one] |  |
| potent activity |  | CC(C)(CC(O)(Cn1ccc(=O)c2sccc21)C(F)(F)F)c1cc(F)ccc1O (centres unmarked) [4-[4-(5-Fluoro-2-hydroxyphenyl)-2-hydroxy-4-methyl-2-trifluoromethylpentyl]-4H-thieno[3,2-b]pyridin-7-one] | inhibit the vitamin D stimulated production of osteocalcin |
| potent activity | 158 to 160 | CC(C)(CC(O)(Cn1cc(Cl)c(=O)c2cnccc21)C(F)(F)F)c1cccc2c1OCC2 (centres unmarked) [3-Chloro-1-[4-(2,3-dihydrobenzofuran-7-yl)-2-hydroxy-4-methyl-2-trifluoromethylpentyl]-1H-[1,6]naphthyridin-4-one] |  |
| potent activity |  | CC(C)(CC(O)(Cn1cc(Cl)c(=O)c2sccc21)C(F)(F)F)c1cc(-c2cncnc2)ccc1O (centres unmarked) [6-Chloro-4-[2-hydroxy-4-(2-hydroxy-5-pyrimidin-5-ylphenyl)-4-methyl-2-trifluoromethylpentyl]-4H-thieno[3,2-b]pyridin-7-one] | inhibit the vitamin D stimulated production of osteocalcin |
| potent activity |  | COc1ccc(-c2cncnc2)cc1C(C)(C)CC(O)(Cn1cc(Cl)c(=O)c2sccc21)C(F)(F)F (centres unmarked) [6-Chloro-4-[2-hydroxy-4-(2-methoxy-5-pyrimidin-5-ylphenyl)-4-methyl-2-trifluoromethylpentyl]-4H-thieno[3,2-b]pyridin-7-one] |  |
| potent activity |  | CC(C)(CC(O)(Cn1cc(Cl)c(=O)c2sccc21)C(F)(F)F)c1cc(-c2cccnc2)ccc1O (centres unmarked) [6-Chloro-4-[2-hydroxy-4-(2-hydroxy-5-pyridin-3-ylphenyl)-4-methyl-2-trifluoromethylpentyl]-4H-thieno[3,2-b]pyridin-7-one] | inhibit the vitamin D stimulated production of osteocalcin |
| potent activity |  | CC(C)(CC(O)(Cn1ccc(=O)c2cnccc21)C(F)(F)F)c1cc(-c2cncnc2)cc2c1OCC2 (centres unmarked) [1-[2-Hydroxy-4-methyl-4-(5-pyrimidin-5-yl-2,3-dihydrobenzofuran-7-yl)-2-trifluoromethylpentyl]-1H-[1,6]naphthyridin-4-one] |  |
